Reference: US20050020594A1, “Substituted pyridazinones” (Pharmacia Corporation, priority 2003, published 2005)

Molecular target: T1, human p38 kinase alpha (Homo sapiens, UniProt Q16539)
T1 construct: made in house; host or cells: E. coli DH10B
Test: p38 alpha kinase assay
Format: biochemical
Conditions: in vitro inhibition of activated human p38 kinase alpha; two formats described (PHAS-I/32P-ATP, EGFRP/33P-ATP), format used not stated; values given as ranges
Protocol: The ability of compounds to inhibit human p38 kinase alpha was evaluated using two in vitro assay methods. In the first method, activated human p38 kinase alpha phosphorylates a biotinylated substrate, PHAS-I (phosphorylated heat and acid stable protein-insulin inducible), in the presence of gamma ^32P-ATP (^32P-ATP). PHAS-I was biotinylated prior to the assay and provides a means of capturing the substrate, which is phosphorylated during the assay. p38 Kinase was activated by MKK6. Compounds were tested in 10 fold serial dilutions over the range of 100 μM to 0.001 μM using 1% DMSO. Each concentration of inhibitor was tested in triplicate. All reactions were carried out in 96 well polypropylene plates. Each reaction well contained 25 mM HEPES pH 7.5, 10 mM magnesium acetate and 50µM unlabeled ATP. Activation of p38 was required to achieve sufficient signal in the assay. Biotinylated PHAS-I was used at 1-2 μg per 50 μl reaction volume, with a final concentration of 1.5 μM. Activated human p38 kinase alpha was used at 1 μg per 50 μl reaction volume representing a final concentration of 0.3 μM. […] The plates were sealed and counted. […] 150 μl of Microscint 40 was then added to each well of the Microlite plate, and the plate was sealed, mixed, and counted.

T1 sequence (Q16539 whole entry): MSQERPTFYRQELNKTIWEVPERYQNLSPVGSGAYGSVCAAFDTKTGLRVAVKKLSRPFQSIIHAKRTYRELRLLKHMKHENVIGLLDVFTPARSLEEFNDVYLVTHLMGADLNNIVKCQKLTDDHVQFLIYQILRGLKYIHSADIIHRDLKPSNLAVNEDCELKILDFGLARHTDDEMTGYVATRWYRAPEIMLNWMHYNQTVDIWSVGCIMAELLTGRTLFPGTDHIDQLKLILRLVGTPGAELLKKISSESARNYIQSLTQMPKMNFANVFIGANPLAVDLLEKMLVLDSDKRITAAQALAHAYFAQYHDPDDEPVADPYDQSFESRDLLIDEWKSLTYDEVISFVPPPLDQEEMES

IC50 [µM] | Structure (SMILES)
40 to 60 | O=c1cc(OCCc2ccccc2)cnn1-c1c(Cl)cccc1Cl [Compound 48, 2-(2,6-dichlorophenyl)-5-(2-phenylethoxy)pyridazin-3(2H)-one]
0.1 to 20 | Cc1c(OCCc2ccccc2)cnn(-c2c(Cl)cccc2Cl)c1=O [Compound 49, 2-(2,6-dichlorophenyl)-4-methyl-5-(2-phenylethoxy)pyridazin-3(2H)-one]
